Tested on: MV-4-11 cells
Experiment: Gene expression microarray analysis (Affymetrix PrimeView) and GSEA
Format: cell-based, human
Set-up: RFU PODN (11730768_x_at) / Fold change /veh PODN (11730768_x_at) / RFU LINC00158 (11744669_a_at) / Fold change /veh LINC00158 (11744669_a_at) / RFU DUSP10 (11751237_a_at) / Fold change /veh DUSP10 (11751237_a_at) / RFU ID3 (11757404_x_at) / Fold change /veh ID3 (11757404_x_at) / RFU PLEKHG5 (11737974_s_at) / Fold change /veh PLEKHG5 (11737974_s_at) / RFU LRRC4B (11730491_at) / Fold change /veh LRRC4B (11730491_at) / RFU GIMAP4 (11747438_a_at) / Fold change /veh GIMAP4 (11747438_a_at) / RFU KRT8 (11758183_x_at) / Fold change /veh KRT8 (11758183_x_at) / RFU CNN1 (11734310_a_at) / Fold change /veh CNN1 (11734310_a_at) / RFU VPS37D (11726825_at) / Fold change /veh VPS37D (11726825_at) / RFU C10orf10 (11716522_x_at) / Fold change /veh C10orf10 (11716522_x_at) / RFU KIR2DL2 /// KIR2DL4 /// KIR2DL5A /// KIR2DL5B /// KIR2DS1 /// KIR2DS2 /// KIR2DS3 /// KIR2DS4 /// KIR3DL3 /// KIR3DL3 /// KIR3DS1 (11738374_at) / Fold change /veh KIR2DL2 /// KIR2DL4 /// KIR2DL5A /// KIR2DL5B /// KIR2DS1 /// KIR2DS2 /// KIR2DS3 /// KIR2DS4 /// KIR3DL3 /// KIR3DL3 /// KIR3DS1 (11738374_at) / RFU C1QL1 (11718748_at) / Fold change /veh C1QL1 (11718748_at) / RFU TMPRSS4 (11747572_a_at) / Fold change /veh TMPRSS4 (11747572_a_at) / RFU HAMP (11756126_x_at) / Fold change /veh HAMP (11756126_x_at) / RFU RNFT2 (11725882_a_at) / Fold change /veh RNFT2 (11725882_a_at) / RFU NR4A2 (11747474_a_at) / Fold change /veh NR4A2 (11747474_a_at) / RFU ABCC12 (11746883_a_at) / Fold change /veh ABCC12 (11746883_a_at) / RFU TMEM136 (11760407_x_at) / Fold change /veh TMEM136 (11760407_x_at) / RFU CLDN22 /// WWC2 (11732394_at) / Fold change /veh CLDN22 /// WWC2 (11732394_at) / RFU HLA-DPB1 (11760878_x_at) / Fold change /veh HLA-DPB1 (11760878_x_at) / RFU SPINT1 (11716480_a_at) / Fold change /veh SPINT1 (11716480_a_at) / RFU GAP43 (11754022_s_at) / Fold change /veh GAP43 (11754022_s_at) / RFU A4GNT (11735810_at) / Fold change /veh A4GNT (11735810_at) / RFU PRB3 (11715151_x_at) / Fold change /veh PRB3 (11715151_x_at) / RFU TUBB4B (11761932_at) / Fold change /veh TUBB4B (11761932_at) / RFU CAPN14 (11732068_a_at) / Fold change /veh CAPN14 (11732068_a_at) / RFU TMCC2 (11721928_a_at) / Fold change /veh TMCC2 (11721928_a_at) / RFU IRGQ (11745062_a_at) / Fold change /veh IRGQ (11745062_a_at) / RFU FAM174B (11720279_a_at) / Fold change /veh FAM174B (11720279_a_at) / RFU TMPRSS4 (11748680_a_at) / Fold change /veh TMPRSS4 (11748680_a_at) / RFU FAM212B (11763350_a_at) / Fold change /veh FAM212B (11763350_a_at) / RFU PLEKHG5 (11743358_a_at) / Fold change /veh PLEKHG5 (11743358_a_at) / RFU ZSCAN30 (11745921_a_at) / Fold change /veh ZSCAN30 (11745921_a_at) / RFU CMKLR1 (11741424_a_at) / Fold change /veh CMKLR1 (11741424_a_at) / RFU LOC101060620 /// MAPK8IP1 (11723275_at) / Fold change /veh LOC101060620 /// MAPK8IP1 (11723275_at) / RFU SPTSSB (11747773_x_at) / Fold change /veh SPTSSB (11747773_x_at) / RFU PRSS12 (11739890_at) / Fold change /veh PRSS12 (11739890_at) / RFU BIN1 (11741810_x_at) / Fold change /veh BIN1 (11741810_x_at) / RFU WNT11 (11732464_a_at) / Fold change /veh WNT11 (11732464_a_at) / RFU C10orf10 (11716521_a_at) / Fold change /veh C10orf10 (11716521_a_at) / RFU C5orf56 (11738089_at) / Fold change /veh C5orf56 (11738089_at) / RFU CYB561 (11721691_x_at) / Fold change /veh CYB561 (11721691_x_at) / RFU ANKRD19P (11752326_a_at) / Fold change /veh ANKRD19P (11752326_a_at) / RFU OR2T12 /// OR2T33 /// OR2T8 (11738714_s_at) / Fold change /veh OR2T12 /// OR2T33 /// OR2T8 (11738714_s_at) / RFU VCAN (11748164_a_at) / Fold change /veh VCAN (11748164_a_at) / RFU JSRP1 (11732532_at) / Fold change /veh JSRP1 (11732532_at) / RFU KRTAP10-11 (11738290_x_at) / Fold change /veh KRTAP10-11 (11738290_x_at) / RFU MYO3A (11730013_a_at) / Fold change /veh MYO3A (11730013_a_at) / RFU EBF3 (11725865_a_at) / Fold change /veh EBF3 (11725865_a_at) / RFU CAMK2N1 (11719241_x_at) / Fold change /veh CAMK2N1 (11719241_x_at) / RFU C5orf56 (11738088_a_at) / Fold change /veh C5orf56 (11738088_a_at) / RFU OLFML3 (11715873_a_at) / Fold change /veh OLFML3 (11715873_a_at) / RFU LOC100653217 /// NTM (11731650_a_at) / Fold change /veh LOC100653217 /// NTM (11731650_a_at) / RFU MAPK11 (11762145_a_at) / Fold change /veh MAPK11 (11762145_a_at) / RFU FIZ1 (11724087_x_at) / Fold change /veh FIZ1 (11724087_x_at) / RFU OASL (11726364_x_at) / Fold change /veh OASL (11726364_x_at) / RFU SOX15 (11748057_x_at) / Fold change /veh SOX15 (11748057_x_at) / RFU CD79A (11719716_a_at) / Fold change /veh CD79A (11719716_a_at) / RFU HIST1H1D (11736915_at) / Fold change /veh HIST1H1D (11736915_at) / RFU CASKIN2 (11723855_a_at) / Fold change /veh CASKIN2 (11723855_a_at) / RFU LOC730098 (11760151_x_at) / Fold change /veh LOC730098 (11760151_x_at) / RFU OR4N2 (11742367_at) / Fold change /veh OR4N2 (11742367_at) / RFU PRRT2 (11749266_a_at) / Fold change /veh PRRT2 (11749266_a_at) / RFU SNX32 (11753110_a_at) / Fold change /veh SNX32 (11753110_a_at) / RFU CDHR5 (11726645_a_at) / Fold change /veh CDHR5 (11726645_a_at) / RFU RCAN1 (11760418_a_at) / Fold change /veh RCAN1 (11760418_a_at) / RFU FAM167A (11723789_a_at) / Fold change /veh FAM167A (11723789_a_at) / RFU FAM26E (11764081_at) / Fold change /veh FAM26E (11764081_at) / RFU ISYNA1 (11749810_s_at) / Fold change /veh ISYNA1 (11749810_s_at) / RFU ACY1 (11761880_at) / Fold change /veh ACY1 (11761880_at) / RFU 11764098_at / Fold change /veh 11764098_at / RFU SAMD14 (11745864_x_at) / Fold change /veh SAMD14 (11745864_x_at) / RFU NPB (11741838_a_at) / Fold change /veh NPB (11741838_a_at) / RFU TMPRSS6 (11731388_a_at) / Fold change /veh TMPRSS6 (11731388_a_at) / RFU KRTAP10-2 (11738614_at) / Fold change /veh KRTAP10-2 (11738614_at) / RFU ARHGAP8 /// PRR5-ARHGAP8 (11727945_x_at) / Fold change /veh ARHGAP8 /// PRR5-ARHGAP8 (11727945_x_at) / RFU KRTAP5-7 /// NADSYN1 (11734609_at) / Fold change /veh KRTAP5-7 /// NADSYN1 (11734609_at) / RFU RASL12 (11751679_a_at) / Fold change /veh RASL12 (11751679_a_at) / RFU CDKN2B (11736163_a_at) / Fold change /veh CDKN2B (11736163_a_at) / RFU PRF1 (11729649_at) / Fold change /veh PRF1 (11729649_at) / RFU, ZNF638 /// ZNF638-IT1 / Fold change vs veh, ZNF638 /// ZNF638-IT1 / RFU, PANK3 / Fold change vs veh, PANK3 / RFU, SH3YL1 / Fold change vs veh, SH3YL1 / RFU, ZEB2 / Fold change vs veh, ZEB2 / RFU, NRIP1 / Fold change vs veh, NRIP1 / RFU, PTTG1IP / Fold change vs veh, PTTG1IP / RFU, CAPN2 / Fold change vs veh, CAPN2 / RFU, MED14 / Fold change vs veh, MED14 / RFU, SNORA58 / Fold change vs veh, SNORA58 / RFU, C1orf63 / Fold change vs veh, C1orf63 / RFU, LRRFIP1 / Fold change vs veh, LRRFIP1 / RFU, NDUFAF7 / Fold change vs veh, NDUFAF7 / RFU, SLC12A2 / Fold change vs veh, SLC12A2 / RFU, IBTK / Fold change vs veh, IBTK / RFU, ESF1 / Fold change vs veh, ESF1 / Fold change vs veh, TMEM50B / RFU, TAOK1 / Fold change vs veh, TAOK1 / RFU, ACBD3 / Fold change vs veh, ACBD3 / RFU, TMA16 / Fold change vs veh, TMA16 / RFU, RWDD3 / Fold change vs veh, RWDD3 / RFU, BCAT1 / Fold change vs veh, BCAT1 / RFU, EDEM3 / Fold change vs veh, EDEM3 / RFU, TMEM33 / Fold change vs veh, TMEM33 / RFU, WDR75 / Fold change vs veh, WDR75 / RFU, AHCTF1 / Fold change vs veh, AHCTF1 / RFU, TFRC / Fold change vs veh, TFRC / RFU, ZDHHC17 / Fold change vs veh, ZDHHC17 / RFU, NOM1 / Fold change vs veh, NOM1 / RFU, ARL8B / Fold change vs veh, ARL8B / RFU, ZBTB11 / Fold change vs veh, ZBTB11 / RFU, TAMM41 / Fold change vs veh, TAMM41 / RFU, KIAA1704 /// LOC100996395 / Fold change vs veh, KIAA1704 /// LOC100996395 / RFU, ING1 / Fold change vs veh, ING1 / RFU, TRMT61B / Fold change vs veh, TRMT61B / RFU, FUBP3 / Fold change vs veh, FUBP3 / RFU, TP53 / Fold change vs veh, TP53 / RFU, TNKS2 / Fold change vs veh, TNKS2 / RFU, ZFP14 / Fold change vs veh, ZFP14 / RFU, ACTR2 / Fold change vs veh, ACTR2 / RFU, PPP3R1 / Fold change vs veh, PPP3R1 / RFU, PIK3R1 / Fold change vs veh, PIK3R1 / RFU, HNRNPA1 / Fold change vs veh, HNRNPA1 / RFU, RNF170 / Fold change vs veh, RNF170 / RFU, ZNF28 / Fold change vs veh, ZNF28 / RFU, RNGTT / Fold change vs veh, RNGTT / RFU, OGT / Fold change vs veh, OGT / RFU, BRD1 / Fold change vs veh, BRD1 / RFU, MARS / Fold change vs veh, MARS / RFU, ZNF655 / Fold change vs veh, ZNF655 / RFU, FAHD1 / Fold change vs veh, FAHD1 / RFU, BDP1 / Fold change vs veh, BDP1 / RFU, LRRCC1 / Fold change vs veh, LRRCC1 / RFU, ARID1A / Fold change vs veh, ARID1A / RFU, ZNF146 / Fold change vs veh, ZNF146 / RFU, ZNF330 / Fold change vs veh, ZNF330 / RFU, GPN3 / Fold change vs veh, GPN3 / RFU, C9orf123 / Fold change vs veh, C9orf123 / RFU, N4BP2L2 / Fold change vs veh, N4BP2L2 / RFU, ARFIP1 / Fold change vs veh, ARFIP1 / RFU, FAM179B / Fold change vs veh, FAM179B / RFU, BCL10 / Fold change vs veh, BCL10 / RFU, UHRF1BP1L / Fold change vs veh, UHRF1BP1L / RFU, BET1 / Fold change vs veh, BET1 / RFU, CNOT2 / Fold change vs veh, CNOT2 / RFU, ZNF268 / Fold change vs veh, ZNF268 / Fold change vs veh, ZNF507 / RFU, DGCR2 / Fold change vs veh, DGCR2 / RFU, WDSUB1 / Fold change vs veh, WDSUB1 / Fold change vs veh, HSP90B1 /// MIR3652 / RFU, ADSS / Fold change vs veh, ADSS / RFU, GK / Fold change vs veh, GK / RFU, ZNF148 / Fold change vs veh, ZNF148 / RFU, TAF9 / Fold change vs veh, TAF9 / RFU, SLC1A5 / Fold change vs veh, SLC1A5 / RFU, SLMO2 / Fold change vs veh, SLMO2 / RFU, ABCC4 / Fold change vs veh, ABCC4 / RFU, LOC101060439 /// RAP1B / Fold change vs veh, LOC101060439 /// RAP1B / RFU, RFX7 / Fold change vs veh, RFX7 / RFU, GTPBP10 / Fold change vs veh, GTPBP10 / RFU, CNEP1R1 / Fold change vs veh, CNEP1R1 / RFU, BIVM-ERCC5 /// ERCC5 / Fold change vs veh, BIVM-ERCC5 /// ERCC5 / RFU, ILF3 / Fold change vs veh, ILF3 / RFU 11762660_at / Fold change /veh 11762660_at / RFU VCAN (11757783_s_at) / Fold change /veh VCAN (11757783_s_at) / RFU DDX43 (11728927_at) / Fold change /veh DDX43 (11728927_at) / RFU KRT8 (11758188_x_at) / Fold change /veh KRT8 (11758188_x_at) / RFU NKD1 (11759106_at) / Fold change /veh NKD1 (11759106_at) / RFU SRD5A1 (11742802_a_at) / Fold change /veh SRD5A1 (11742802_a_at) / RFU TPSAB1 /// TPSB2 (11721975_s_at) / Fold change /veh TPSAB1 /// TPSB2 (11721975_s_at) / RFU GSTM3 (11746129_a_at) / Fold change /veh GSTM3 (11746129_a_at) / RFU IL23R (11737362_x_at) / Fold change /veh IL23R (11737362_x_at) / RFU TMEM51 (11727254_a_at) / Fold change /veh TMEM51 (11727254_a_at) / RFU PIWIL2 (11732686_x_at) / Fold change /veh PIWIL2 (11732686_x_at) / RFU ORM1 (11744905_x_at) / Fold change /veh ORM1 (11744905_x_at) / RFU CCDC152 (11743942_at) / Fold change /veh CCDC152 (11743942_at) / RFU ECM1 (11717891_a_at) / Fold change /veh ECM1 (11717891_a_at) / RFU IL23R (11748794_a_at) / Fold change /veh IL23R (11748794_a_at) / RFU TNFAIP8L3 (11732012_x_at) / Fold change /veh TNFAIP8L3 (11732012_x_at) / RFU MBOAT4 (11741988_at) / Fold change /veh MBOAT4 (11741988_at) / RFU 11764193_at / Fold change /veh 11764193_at / RFU TMEM53 (11763286_at) / Fold change /veh TMEM53 (11763286_at) / RFU MAGEB2 (11727129_at) / Fold change /veh MAGEB2 (11727129_at) / RFU TMEM200A (11744735_a_at) / Fold change /veh TMEM200A (11744735_a_at) / RFU CCDC152 (11751479_a_at) / Fold change /veh CCDC152 (11751479_a_at) / RFU FAM211A (11726209_a_at) / Fold change /veh FAM211A (11726209_a_at) / RFU RGS16 (11746705_a_at) / Fold change /veh RGS16 (11746705_a_at) / RFU VCAN (11755009_s_at) / Fold change /veh VCAN (11755009_s_at) / RFU RHOB (11743442_s_at) / Fold change /veh RHOB (11743442_s_at) / RFU RGS16 (11720943_a_at) / Fold change /veh RGS16 (11720943_a_at) / RFU RGS16 (11720944_at) / Fold change /veh RGS16 (11720944_at) / RFU, VPS4B / Fold change vs veh, VPS4B / RFU, CREB1 / Fold change vs veh, CREB1 / RFU, DNAJC13 / Fold change vs veh, DNAJC13 / RFU, GNAQ / Fold change vs veh, GNAQ / RFU, CDK5R1 / Fold change vs veh, CDK5R1 / RFU, ZRANB3 / Fold change vs veh, ZRANB3 / RFU, CUL4A / Fold change vs veh, CUL4A / RFU, CCNY / Fold change vs veh, CCNY / RFU, UFL1 / Fold change vs veh, UFL1 / RFU, COG3 / Fold change vs veh, COG3 / RFU, DIAPH2 / Fold change vs veh, DIAPH2 / RFU, SKA2 / Fold change vs veh, SKA2 / RFU, AFF3 / Fold change vs veh, AFF3 / RFU, LMF1 / Fold change vs veh, LMF1 / RFU, IPO11 / Fold change vs veh, IPO11 / RFU, DFFB / Fold change vs veh, DFFB / RFU, FOXP1 / Fold change vs veh, FOXP1 / RFU, CARD8 / Fold change vs veh, CARD8 / RFU, STRN3 / Fold change vs veh, STRN3 / RFU, ADK / Fold change vs veh, ADK / RFU, RASSF2 / Fold change vs veh, RASSF2 / RFU, WIPF1 / Fold change vs veh, WIPF1 / RFU, LARP1B / Fold change vs veh, LARP1B / RFU, RASA1 / Fold change vs veh, RASA1 / RFU, RB1 / Fold change vs veh, RB1 / RFU, PPFIA1 / Fold change vs veh, PPFIA1 / RFU, MAT2A / Fold change vs veh, MAT2A / RFU, CCT5 / Fold change vs veh, CCT5 / RFU, WDR92 / Fold change vs veh, WDR92 / RFU, CUX1 / Fold change vs veh, CUX1 / RFU, TTC7A / Fold change vs veh, TTC7A / RFU, TMEM135 / Fold change vs veh, TMEM135 / RFU, DEPTOR / Fold change vs veh, DEPTOR / RFU, CPM / Fold change vs veh, CPM / RFU, DNAJB6 / Fold change vs veh, DNAJB6 / RFU, CACNA2D3 / Fold change vs veh, CACNA2D3 / RFU, DTX4 / Fold change vs veh, DTX4 / RFU, TFCP2 / Fold change vs veh, TFCP2 / RFU, GMCL1 /// GMCL1P1 / Fold change vs veh, GMCL1 /// GMCL1P1 / RFU, AEBP2 / Fold change vs veh, AEBP2 / RFU, SNHG1 /// SNORD22 /// SNORD25 /// SNORD26 /// SNORD27 /// SNORD28 /// SNORD29 /// SNORD31 / Fold change vs veh, SNHG1 /// SNORD22 /// SNORD25 /// SNORD26 /// SNORD27 /// SNORD28 /// SNORD29 /// SNORD31 / Fold change (Aza/veh), C12orf56 (ProbeSet 11735607_a_at) / Fold change (ACY-1035/veh), C12orf56 (ProbeSet 11735607_a_at) / Fold change (Aza/veh), FGFR1OP (ProbeSet 11751329_s_at) / Fold change (ACY-1035/veh), FGFR1OP (ProbeSet 11751329_s_at) / Fold change (Aza/veh), VPS36 (ProbeSet 11739960_a_at) / Fold change (ACY-1035/veh), VPS36 (ProbeSet 11739960_a_at) / RFU SYPL1 (11715823_x_at) / Fold change /veh SYPL1 (11715823_x_at) / RFU IGFBP7 (11715501_s_at) / Fold change /veh IGFBP7 (11715501_s_at) / RFU REEP3 (11722064_at) / Fold change /veh REEP3 (11722064_at) / RFU IGLL1 (11728026_x_at) / Fold change /veh IGLL1 (11728026_x_at): dose or concentration left out as unconfirmed
Conditions: ProbeSet 11764057_s_at; LIST B

## Nc1ncn([C@@H]2O[C@H](CO)[C@@H](O)[C@H]2O)c(=O)n1 [azacitidine]
  Fold change vs veh, C1orf63: 1.09

From article PMC5218480 (PLoS ONE, 2017)
